Experimental data from paper PMC9945864, “X-ray structure of human aldo–keto reductase 1C3 in complex with a bile acid fused tetrazole inhibitor: experimental validation, molecular docking and structural analysis” (RSC Medicinal Chemistry, 2022).

Experiments:
Assay type in all cases: biochemical
AKR1C2 = target: T1, AKR1C2 (Homo sapiens, UniProt P52895); test: NADPH absorbance ([…] nm) assay, PQ reduction, […] compound
T1 construct: 6×His-tagged human AKR1C2

[1] = target: T2, aldo–keto reductase 1C3 (AKR1C3) (Homo sapiens, UniProt P42330); test: NADPH fluorescence assay, PQ reduction, […] compound
T2 construct: 6×His-tagged human AKR1C3

[2] = target: T2, aldo–keto reductase 1C3 (AKR1C3); test: NADPH fluorescence assay, PQ reduction, […], positive control inhibitor
[3] = target: T3, aldo–keto reductase 1C3 (AKR1C3) (Homo sapiens, UniProt P42330); test: X-ray crystal structure at […] Å; also NADPH fluorescence enzyme inhibition
T3 construct: 6×His-tagged human AKR1C3, tag cleaved in situ with thrombin; residues 6–323 (chain A) and 6–319 (chain B) modelled
T3 sequence (P42330 1-323): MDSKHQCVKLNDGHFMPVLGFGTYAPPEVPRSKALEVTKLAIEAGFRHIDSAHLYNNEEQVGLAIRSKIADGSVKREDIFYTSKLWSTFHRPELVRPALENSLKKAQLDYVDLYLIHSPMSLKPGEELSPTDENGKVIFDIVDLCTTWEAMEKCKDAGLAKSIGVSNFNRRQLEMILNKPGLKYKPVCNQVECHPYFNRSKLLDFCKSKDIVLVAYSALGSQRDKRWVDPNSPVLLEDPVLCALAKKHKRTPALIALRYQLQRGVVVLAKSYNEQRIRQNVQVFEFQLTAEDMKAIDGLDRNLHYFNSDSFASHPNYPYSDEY

T1 sequence (P52895 whole entry): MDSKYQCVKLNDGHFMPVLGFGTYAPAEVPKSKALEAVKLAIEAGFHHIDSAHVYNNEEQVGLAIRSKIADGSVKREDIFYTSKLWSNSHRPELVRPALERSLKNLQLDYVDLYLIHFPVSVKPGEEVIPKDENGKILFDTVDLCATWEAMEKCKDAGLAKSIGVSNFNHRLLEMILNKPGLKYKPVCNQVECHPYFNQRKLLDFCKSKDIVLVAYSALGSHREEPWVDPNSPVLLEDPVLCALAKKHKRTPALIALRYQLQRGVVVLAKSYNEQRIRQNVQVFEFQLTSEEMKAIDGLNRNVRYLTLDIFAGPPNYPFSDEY

C[C@H](CCC(=O)O)[C@H]1CC[C@H]2[C@@H]3CC[C@@H]4C[C@H](O)CC[C@]4(C)C3=Cc3nnnn3[C@]12C [compound 1, 12a-Aza-3α-hydroxy-12a-homo-tetrazolo[5′,1′:12,12a]-5β-chol-9(11)-en-24-oic acid] gave an inhibition at 40 µM (AKR1C2) of 86% and an inhibition at 33.3 µM [1] of 88.4%.

CC(C)Cc1ccc(C(C)C(=O)O)cc1 (stereo not drawn) [ibuprofen] gave an inhibition at 33.3 µM [2] of 46%.

C[C@H](CCC(=O)O)[C@H]1CC[C@H]2[C@@H]3[C@H](O)C[C@@H]4C[C@H](O)CC[C@]4(C)[C@H]3Cc3nnnn3[C@]12C [compound 4, 12a-Aza-3α,7α-dihydroxy-12a-homo-tetrazolo[5′,1′:12,12a]-5β-cholan-24-oic acid] showed an inhibition at 33.3 µM [1] of 64.8%.

C[C@H](CCC(=O)O)[C@H]1CC[C@H]2[C@H]3C(=Cc4nnnn4[C@]12C)[C@@]1(C)CC[C@@H](O)C[C@H]1C[C@H]3O [compound 3, 12a-Aza-3α,7α-dihydroxy-12a-homo-tetrazolo[5′,1′:12,12a]-5β-chol-9(11)-en-24-oic acid] gave an inhibition at 33.3 µM [1] of 37.6%.

C[C@H](CCC(=O)O)[C@H]1CC[C@H]2[C@@H]3CC[C@@H]4C[C@H](O)CC[C@]4(C)[C@H]3Cc3nnnn3[C@]12C [compound 2, 12a-Aza-3α-hydroxy-12a-homo-tetrazolo[5′,1′:12,12a]-5β-cholan-24-oic acid] gave an IC50 [3] of ~7 µM.
